Assay results from patent publication US20050267020A1, “Polypeptides derived from inducible hsp70 and pharmaceutical compositions containing the same” (priority 2001, published 2005).

How the values were obtained:
human CD8+ cells = assay: Generation of CTL from human PBMC with peptide- or polyepitope-pulsed dendritic cells, intracellular IFN-γ staining; assay type: cell-based; settings: CD8+ cells stimulated with peptide-loaded dendritic cells
Procedure: The three graphs entitled hCTL380, hCTL391 and hCTL393 represent respectively the testing of p380, p391 and p393-specific human CTLs. P391 and p393 specific CTLs were tested towards EBV-B cells, whereas p380 specific CTLs were tested towards T2 cells. The number of IFN-γ producing CD8+ cells for 10^5 CD8+ cells upon activation, indicated on the X-axis, was measured, as assessed by staining cells for CD8 and intracellular IFN-γ.
Polyepitope induced human CTL were tested for their capacity to respond to T2 cells loaded with p380, p391 or p393 or the irrelevant HIVpol589 peptides in intracellular IFN-γ staining. The X axis represents the number of IFNγ-producing CTL/10^5 CD8+ cells. On the Y axis, upper to lower bars represent the results obtained when cells were loaded respectively with irrelevant HIV pol589 peptides, or with p380, p391 or p393 peptides.
Generation of CTL from Human Peripheral Blood Mononuclear Cells (PBMC). Fresh PBMC collected from healthy donnors under informed consent were serologically typed for the studied HLA-class I molecule, and purified using standard Ficoll-Paque (Amersham Pharmacia Biotech AB). Dendritic cells (DC) were prepared by cultivating plastic adherent PBMC in the presence of 500 U/mL GM-CSF (R&D Systems Inc. MN) and 500 U/mL IL-4 (R&D Systems Inc. MN) for 7 days such as described in Keogh et al. (30).
DC were then maturated for 2 days with 2 μg/mL anti-CD40 antibody and 100 ng/mL Poly I:C (Sigma-Aldrich). […] Autologous CD8+ purified T-cells (CD8 MicroBeads, Miltneyi Biotec Inc. CA) were stimulated weekly with DC pulsed for two hours with peptide (10 μM) and irradiated at 35Gy at a T:DC ratio of 10:1 in culture medium (CM; RPMI 1640 supplemented with 10% human AB serum, […] L-glutamine and gentamycin). 1×10^3 U/mL IL-6 and SU/mL IL-12 (R&D Systems Inc. MN) were added during the first week of culture. 20 U/mL clinical grade IL-2 (Proleukin, Chiron Corp.) and 10 ng/mL IL-7 (R&D Systems Inc. MN) were added during the next two weeks of culture. 7 days after the last stimulation with DC, peptide specific IFN-γ secreting CD8+ T cells were magnetically sorted following encounter of the peptide presented by HLA-A*0201+ B-EBV cells (IFN-γ Secretion Assay, Miltenyi Biotec Inc. CA). The characterization of peptide-specific T cells was tested 7 days after the purification step.
Intracellular IFN-g Staining. 5×10^4 T cells were incubated with 10^5 stimulating peptide loaded EBV-B cells or with 10^5 tumor cells in the presence of 20 μg/ml brefeldin-A (Sigma, Oakville, Canada). Six hours later, they were washed, stained with r-phycoerythrin-conjugated anti-CD8 antibody (Caltag Laboratories, Burlingame, Calif.) in PBS for 25 min at 4° C., washed and fixed with 4% PFA. Then, cells were permeabilized with PBS 0.5% BSA 0.2% saponin (Sigma, Oakville, Canada), and stained with allophycocyanin-conjugated anti-IFNg mAb (PharMingen, Mississauga, Canada) for 25 min at 4° C. Cells were analyzed on FACSCalibur (Becton Dickinson, Mountain View, Calif.).

HHD mice = assay: Generation of CTL in HLA-A*0201 transgenic HHD mice (immunogenicity); assay type: in vivo, mouse
Procedure: Generation of CTL in HLA-transgenic mice. HLA-transgenic mice were injected subcutaneously at the base of the tail with 100 μg of peptide emulsified in incomplete Freund's adjuvant (IFA) in the presence of 140 μg of the I-A^b restricted HBVcore-derived T-helper epitope (128-140; sequence TPPAYRPPNAPIL). After 11 days, spleen cells (5×10^7 cells in 10 mL) were stimulated in vitro with peptide (10 μM). On day 6 of culture, the bulk responder populations were tested for specific cytotoxicity. Upon response, the CTL line was then weekly re-stimulated in vitro with 20×10^6 35Gy irradiated spleen cells in the presence of 1 to 0.1 μM peptide and 50 U/mL IL-2 (Proleukin, Chiron Corp.). Cytotoxicity was assayed 6 days after the last stimulation and TNF-α secretion 11-13 days after, with the addition of 50 U/mL IL-2 on day 7. HHD mice transgenic for HLA-A*0201 were used. B7B7 Kd mice and mice transgenic for HLA-A*0301 are used for the study of the HLA-B*0701 and HLA-A*0301 restricted peptides respectively.

Sequence	induction of specific human CTL (human CD8+ cells)	induction of specific cytotoxic T cell immune response in HHD mice (HHD mice)
LMGDKSENV [HSP 380]	capable of stimulating specific human CTL	capable of generating a specific cytotoxic T cell immune response
LLLLDVAPL [HSP 391]	capable of stimulating specific human CTL	capable of generating a specific cytotoxic T cell immune response
YLGYPVTNAV [HSP 134(10)]	capable of stimulating specific human CTL	capable of generating a specific cytotoxic T cell immune response
